pIC50: −log10 of the molar value.
Biological target: T1, JAK3: Recombinant human kinase domain (Homo sapiens, UniProt P52333)
T1 construct: JAK3: Recombinant human kinase domain from Millipore (Cat #14-629) or prepared; purchased Millipore 14-629
Experiment: Determination of IC50 of Janus Kinase (JAK) inhibition, radioactive end-point 33P-ATP assay, JAK3
Type: biochemical
Settings: ATP 1.5 uM, peptide 50 uM, 20 minutes, read-out: JAK3-INHIB-DR/v1~NO ADDITIVE~Enzyme_Conc = 100

T1 sequence (P52333 822-1111 limits assumed): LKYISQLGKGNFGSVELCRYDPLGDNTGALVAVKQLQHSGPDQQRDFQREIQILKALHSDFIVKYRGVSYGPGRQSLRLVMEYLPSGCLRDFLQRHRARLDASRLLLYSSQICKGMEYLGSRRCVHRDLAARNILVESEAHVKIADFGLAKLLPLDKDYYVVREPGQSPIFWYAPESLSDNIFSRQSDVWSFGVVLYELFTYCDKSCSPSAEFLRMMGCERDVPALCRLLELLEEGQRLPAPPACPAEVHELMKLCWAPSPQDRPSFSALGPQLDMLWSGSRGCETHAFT

pIC50	Structure (SMILES)
7.89	C[C@@H](NC(=O)c1c[nH]c2ncc(-c3nn(C)c4cc(F)ccc34)nc12)c1ccc(Br)cc1 [Example I-216, 2-(6-Fluoro-1-methyl-1H-indazol-3-yl)-5H-pyrrolo[2,3-b]pyrazine-7-carboxylic acid [(R)-1-(4-bromo-phenyl)-ethyl]-amide]
7.63	C[C@@H](NC(=O)c1c[nH]c2ncc(-c3nn(C)c4cc(F)ccc34)nc12)c1cccc(C#N)c1 [Example I-217, 2-(6-Fluoro-1-methyl-1H-indazol-3-yl)-5H-pyrrolo[2,3-b]pyrazine-7-carboxylic acid [(R)-1-(3-cyano-phenyl)-ethyl]-amide]
7.83	C[C@@H](NC(=O)c1c[nH]c2ncc(-c3nn(C)c4cc(F)ccc34)nc12)c1ccc(C#N)cc1 [Example I-218, 2-(6-Fluoro-1-methyl-1H-indazol-3-yl)-5H-pyrrolo[2,3-b]pyrazine-7-carboxylic acid [(R)-1-(4-cyano-phenyl)-ethyl]-amide]
8.52	C[C@@H](COCC#N)NC(=O)c1c[nH]c2ncc(-c3nn(C)c4cc(F)ccc34)nc12 [Example I-219, 2-(6-Fluoro-1-methyl-1H-indazol-3-yl)-5H-pyrrolo[2,3-b]pyrazine-7-carboxylic acid ((S)-2-cyanomethoxy-1-methyl-ethyl)-amide]
8.66	C[C@@H](NC(=O)c1c[nH]c2ncc(-c3cnc4ccccn34)nc12)C(=O)N1CC(C#N)C1 [Example I-220, 2-Imidazo[1,2-a]pyridin-3-yl-5H-pyrrolo[2,3-b]pyrazine-7-carboxylic acid [(R)-2-(3-cyano-azetidin-1-yl)-1-methyl-2-oxo-ethyl]-amide]
8.00	COC[C@H](C)NC(=O)c1c[nH]c2ncc(-c3cnc4cc(C#N)ccn34)nc12 [Example I-222, 2-(7-Cyano-imidazo[1,2-a]pyridin-3-yl)-5H-pyrrolo[2,3-b]pyrazine-7-carboxylic acid ((S)-2-methoxy-1-methyl-ethyl)-amide]
6.84	C[C@@H](NC(=O)c1c[nH]c2ncc(-n3cnc4cc(Cl)ccc43)nc12)C(=O)N1CC(C#N)C1 [Example I-225, 2-(5-Chloro-benzoimidazol-1-yl)-5H-pyrrolo[2,3-b]pyrazine-7-carboxylic acid [(R)-2-(3-cyano-azetidin-1-yl)-1-methyl-2-oxo-ethyl]-amide]
8.09	C[C@@H](NC(=O)c1c[nH]c2ncc(-c3nn(CC(=O)O)c4cc(Cl)ccc34)nc12)C(=O)N1CC(C#N)C1 [Example I-226, (6-Chloro-3-{7-[(R)-2-(3-cyano-azetidin-1-yl)-1-methyl-2-oxo-ethylcarbamoyl]-5H-pyrrolo[2,3-b]pyrazin-2-yl}-indazol-1-yl)-acetic acid]
8.38	C[C@@H](NC(=O)c1c[nH]c2ncc(-c3nn(CC(=O)N(C)C)c4cc(Cl)ccc34)nc12)C(=O)N1CC(C#N)C1 [Example I-227, 2-(6-Chloro-1-dimethylcarbamoylmethyl-1H-indazol-3-yl)-5H-pyrrolo[2,3-b]pyrazine-7-carboxylic acid [(R)-2-(3-cyano-azetidin-1-yl)-1-methyl-2-oxo-ethyl]-amide]
8.68	C[C@@H](NC(=O)c1c[nH]c2ncc(-c3nn(CC(=O)N4CCOCC4)c4cc(Cl)ccc34)nc12)C(=O)N1CC(C#N)C1 [Example I-228, 2-[6-Chloro-1-(2-morpholin-4-yl-2-oxo-ethyl)-1H-indazol-3-yl]-5H-pyrrolo[2,3-b]pyrazine-7-carboxylic acid [(R)-2-(3-cyano-azetidin-1-yl)-1-methyl-2-oxo-ethyl]-amide]
8.48	C[C@@H](NC(=O)c1c[nH]c2ncc(-c3nn(CCN(C)C)c4cc(Cl)ccc34)nc12)C(=O)N1CC(C#N)C1 [Example I-229, 2-[6-Chloro-1-(2-dimethylamino-ethyl)-1H-indazol-3-yl]-5H-pyrrolo[2,3-b]pyrazine-7-carboxylic acid [(R)-2-(3-cyano-azetidin-1-yl)-1-methyl-2-oxo-ethyl]-amide]

Reference: patent US8658646B2, “Pyrrolopyrazine kinase inhibitors” (Hoffmann-LaRoche Inc., priority 2011, dated 2014)
